{
  "source": "patent US6569877B2",
  "about": "“Therapeutic and prophylactic agents for neoplasms” (Sankyo Company, Limited, priority 1999, dated 2003)",
  "key": {"[1]": {"tested_on": "Human MKN-74 stomach cancer cells", "assay": "Antitumor effects on human MKN-74 stomach cancer cells (subcutaneous xenograft in nude mice)", "type": "in vivo", "text": "(§1) A piece (5 mm×5 mm) of human stomach affected by MKN-74 strain of stomach cancer was subcutaneously inoculated in a group of 10 BALB/c nude mice (female, 6 weeks old). The test compounds were suspended in 5% emulsified saline containing 2.5% dimethylacetamide. They were orally administered once a day for 24 times in total, i.e., from the first day after inoculation to the 4th day, from the 7th to the 11th day, from the 14th to the 18th day, from the 21st to the 25th day and from the 28th to the 32nd day after the inoculation.\n(§2) The short diameter (mm) and the long diameter (mm) of the tumor were measured with an electronic digital caliper square on the 35th day after inoculation. The efficacy of the test compound was evaluated by calculation of the inhibitory growth rate of the tumor (GI %) in a similar to those described above in Test Example 2."}, "[2]": {"tested_on": "Human large intestine cancer cells COL-2-JCK", "assay": "Antitumor effects upon human large intestine cancer cells COL-2-JCK (colony formation, crystal violet staining)", "type": "cell-based", "conditions": "300 cells/well, 10 days incubation, control (0) 3311", "protocol": "Human cancer cells from the large intestine, COL-2-JCK (moderately differentiated adenocarcinoma), purchased from the Central Institute for Experimental Animals, were employed in the Test Example of the present invention as the solid tumor strain. The proliferated CLO-2-JCK cells were cultured and used for the experiments in our laboratory. In order to subculture the strain of the cancer cells and to test compounds in the experiments, the cancer cells were cultured with D-MEM/F-12 culture medium containing bovine fetal serum (manufactured by GIBCO Co.).\nThe test was carried out as follows: COL-2-JCK cells growed confluently on a petri dish for culture of cells (inner diameter 100 mm) were removed from the petri dish by using EDTA and 0.05% trypsin solution, and diluted to 100 cells/ml cell density with the culture medium. 3 ml of the diluted cell solution was then placed into each well of a 6-well plate (300 cells/well). At the same time, the test compound dissolved in DMSO solution was added so as to be 1, 10, 100 nM, 1 and 10 μM of the final concentrations to each well. The final concentration of the DMSO solution was adjusted to 0.1%. DMSO solution (0.1%) alone was placed in wells of the control group. After addition of the test compound, the cells were incubated in the presence of 5% CO2 gas for 10 days at 37° C. After incubation was terminated, each well containing the cells was washed once with Dulbecco phosphate buffer saline (bivalent ion minus). Then 1 ml of 10% neutral formalin solution containing 0.02% crystal violet was added to the well and left for 5 minutes in order to stain the cells. After the dye was fixed, the cells were washed with water and air-dried. The total colony area (mm^2) of dye-fixed tumor cells was calculated by using an image analyzer of PCA-11 (manufactured by SystemSience Co.)."}, "[3]": {"tested_on": "Human H69 lung cancer cells", "assay": "Antitumor effect on human H69 lung cancer cells (subcutaneous xenograft in nude mice)", "type": "in vivo", "conditions": "H69 in BALB/c nude mice; 10 mg/kg orally once a day, 24 times; tumor volume on the 39th day after inoculation", "text": "as §1, with “human lung” for “human stomach”, “by H69” for “by MKN-74”, “of lung” for “of stomach”, “after the” for “after”, “18th day and” for “18th day,”, “after” for “after the”\nas §2, with “39th” for “35th”, “according” for “in a similar”, “the following equation: […]” for “those described above in Test Example 2.”\nA: average tumor volume on the 39th day after inoculation in the group treated with the test compound (*)\nB: an average tumor volume on the 39th day after inoculation in the non-treated group (*)\n*: The tumor volume indicates ½×(long diameter of the tumor)×(short diameter of the tumor)^2."}},
  "data": [
    {"compound": "COc1ccc2nc(COc3ccc(CC4SC(=O)NC4=O)cc3)n(C)c2c1.Cl", "note": "(centres unmarked) [Example 1, 5-[4-(6-Methoxy-1-methyl-1H-benzimidazol-2-ylmethoxy)benzyl]thiazolidine-2,4-dione hydrochloride]", "values": [
      {"measurement": "GI (%) inhibitory growth rate of the tumor", "setting": "[1]; MKN-74 in BALB/c nude mice, 10 mg/kg orally once a day, 24 times, tumor volume on the 35th day after inoculation", "value": 76, "unit": "%"},
      {"measurement": "suppression of proliferation of human stomach cancer cells (in words)", "setting": "[1]; as shown by Test Example 3", "value": "suppressed the proliferation of human stomach cancer cells to a remarkable extent"},
      {"measurement": "Total colony area (mm^2) of tumor cells", "setting": "[2]; final concentration of the test compound 1 nM", "value": 2795, "unit": "mm^2"},
      {"measurement": "Total colony area (mm^2) of tumor cells", "setting": "[2]; final concentration of the test compound 10 nM", "value": 2018, "unit": "mm^2"},
      {"measurement": "Total colony area (mm^2) of tumor cells", "setting": "[2]; final concentration of the test compound 100 nM", "value": 1352, "unit": "mm^2"},
      {"measurement": "Total colony area (mm^2) of tumor cells", "setting": "[2]; final concentration of the test compound 1 μM", "value": 933, "unit": "mm^2"},
      {"measurement": "Total colony area (mm^2) of tumor cells", "setting": "[2]; final concentration of the test compound 10 μM", "value": 768, "unit": "mm^2"},
      {"measurement": "GI (%) inhibitory growth rate of the tumor", "setting": "[3]", "value": 57, "unit": "%"}
    ]}
  ]
}
